ChEMBL document CHEMBL1153520, “A multivalent approach to the design and discovery of orally efficacious 5-HT4 receptor agonists” (J Med Chem, 2009)

Assays:
[1] = target: T1, 5-hydroxytryptamine receptor 4 (Homo sapiens, UniProt Q13639); experiment: Agonist activity at human 5HT4C receptor expressed in HEK293 cells assessed as accumulation of cAMP by flash plate adenylyl cyclase activation assay; assay type: functional, cell-based
[2] = target: T1, 5-hydroxytryptamine receptor 4; experiment: Intrinsic activity at human 5HT4C receptor expressed in HEK293 cells assessed as accumulation of cAMP by flash plate adenylyl cyclase activation assay relative to serotonin; assay type: functional, cell-based
[3] = target: T1, 5-hydroxytryptamine receptor 4; experiment: Displacement of [H]GR-113808 from human 5HT4C receptor expressed in HEK293 cells by liquid scintillation counting; assay type: cell-based
Homo sapiens = species: Homo sapiens; experiment: Selectivity ratio of Ki for human 5HT3A receptor to Ki for human 5HT4C receptor

T1 sequence (Q13639 whole entry): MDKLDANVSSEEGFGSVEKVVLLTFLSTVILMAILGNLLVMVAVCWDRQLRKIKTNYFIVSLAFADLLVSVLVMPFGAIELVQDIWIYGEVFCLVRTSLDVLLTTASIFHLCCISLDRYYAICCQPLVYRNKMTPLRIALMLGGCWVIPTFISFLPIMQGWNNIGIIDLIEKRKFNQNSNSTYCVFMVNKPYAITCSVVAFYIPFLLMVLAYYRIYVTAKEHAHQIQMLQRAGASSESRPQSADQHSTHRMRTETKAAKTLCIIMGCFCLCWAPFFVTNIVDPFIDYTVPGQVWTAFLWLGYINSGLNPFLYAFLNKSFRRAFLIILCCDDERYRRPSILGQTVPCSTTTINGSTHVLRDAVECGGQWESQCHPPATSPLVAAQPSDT

Row | Compound | EC50 [1] [nM] | Intrinsic activity [2] [%] | Ki [3] [nM] | Ratio Ki (Homo sapiens)
1 | COc1cc(N)c(Cl)cc1C(=O)NC1CCN(CCCCCCCCN(C)CCc2c[nH]c3ccccc23)CC1 | 0.794 | > 100 | 1.26 | 2800
2 | CC(C)n1c(=O)c(C(=O)N[C@H]2C[C@H]3CC[C@@H](C2)N3CCCCCN2CCCCC2)cc2ccccc21 | 1 | > 100 | 5.01 | 8100
3 | CCN1[C@@H]2CC[C@H]1C[C@@H](NC(=O)c1cc3ccccc3n(C(C)C)c1=O)C2 | 31.6 | 96 | 126 | 19
4 | CC(C)n1c(=O)c(C(=O)N[C@H]2C[C@H]3CC[C@@H](C2)N3CCCCCO)cc2ccccc21 | 25.1 | > 100 | 63.1 | 460
5 | CC(C)n1c(=O)c(C(=O)N[C@H]2C[C@H]3CC[C@@H](C2)N3CCCCCS(=O)(=O)O)cc2ccccc21 | 12.6 | > 100 | 1580 | 21
6 | CC(C)n1c(=O)c(C(=O)N[C@H]2C[C@H]3CC[C@@H](C2)N3CCCCCCCCS(=O)(=O)O)cc2ccccc21 | 20 | > 100 | 63.1 | 230
7 | COc1cc(N)c(Cl)cc1C(=O)NC1CCN(CCN2C(=O)c3ccccc3C2=O)CC1 | 631 | 94 | 7940 | 13
8 | CC(C)n1c(=O)n(C(=O)NCC2CCNCC2)c2ccccc21 | 15.8 | 92 | 39.8 | 0.21
9 | COc1cc(N)c(Cl)cc1C(=O)NC1CCN(CCCCCCCCN2CCN(S(C)(=O)=O)CC2)CC1 | 39.8 | > 100 | 15.8 | 330
10 | COc1cc(N)c(Cl)cc1C(=O)NC1CCN(CCN2CCN(S(C)(=O)=O)CC2)CC1 | 20 | 97 | 126 | 21
11 | COc1ccc2[nH]cc(C(=O)N[C@H]3C[C@H]4CC[C@@H](C3)N4)c2c1 | 2510 | 77 | 3160 | 1.4
12 | CC(C)n1nc(C(=O)N[C@H]2C[C@H]3CC[C@@H](C2)N3)c2ccccc21 | 39.8 | 94 | 63.1 | 0.092
13 | CC(C)n1c(=O)c(C(=O)N[C@H]2C[C@H]3CC[C@@H](C2)N3CCS(=O)(=O)O)cc2ccccc21 | 6.31 | > 100 | 1000 | 49
14 | COc1ccc2[nH]cc(C(=O)NCC3CCNCC3)c2c1 | 6310 | 42 | 3980 | 1.1
15 | COc1cc(N)c(Cl)cc1C(=O)NCCN1CCNCC1 | 501 | > 100 | 1260 | 1.1
16 | COc1cc(N)c(Cl)cc1C(=O)NC1CCN(CCCCCN2C(=O)c3ccccc3C2=O)CC1 | 5.01 | > 100 | 20 | 120
17 | COc1cc(N)c(Cl)cc1C(=O)NC1CCN(CCCCCS(=O)(=O)O)CC1 | 398 | 93 | 6310 | 0.15
18 | COc1cc(N)c(Cl)cc1C(=O)NC1CCN(CCS(=O)(=O)O)CC1 | 1580 | > 100 | 25100 | 1.5
19 | CC(C)n1c(=O)c(C(=O)N[C@H]2C[C@H]3CC[C@@H](C2)N3CCN2C(=O)c3ccccc3C2=O)cc2ccccc21 | 79.4 | > 100 | 1000 | 55
20 | CC(C)n1c(=O)c(C(=O)N[C@H]2C[C@H]3CC[C@@H](C2)N3CCCCCCCCO)cc2ccccc21 | 15.8 | > 100 | 50.1 | 1100

Row | Compound | EC50 [1] [nM] | Intrinsic activity [2] [%] | Ki [3] [nM] | Ratio Ki (Homo sapiens)
21 | CC(C)n1c(=O)c(C(=O)NC2CCNCC2)cc2ccccc21 | 158 | > 100 | 3160 | 0.14
22 | CCCCCN1[C@@H]2CC[C@H]1C[C@@H](NC(=O)c1cc3ccccc3n(C(C)C)c1=O)C2 | 39.8 | > 100 | 63.1 | 890
23 | CC(C)n1c(=O)c(C(=O)N[C@H]2C[C@H]3CC[C@@H](C2)N3CCCCCCCCN2C(=O)c3ccccc3C2=O)cc2ccccc21 | 50.1 | > 100 | 31.6 | 120
24 | CC(C)n1c(=O)c(C(=O)N[C@H]2C[C@H]3CC[C@@H](C2)N3CCN(C)CCc2c[nH]c3ccccc23)cc2ccccc21 | 1.26 | 92 | 39.8 | 480
25 | CC(C)n1c(=O)c(C(=O)N[C@H]2C[C@H]3CC[C@@H](C2)N3CCO)cc2ccccc21 | 31.6 | > 100 | 126 | 3.2
26 | CC(C)n1c(=O)n(C(=O)N[C@H]2C[C@H]3CC[C@@H](C2)N3)c2ccccc21 | 15.8 | > 100 | 316 | 0.013
27 | CCN1CCC(NC(=O)c2cc(Cl)c(N)cc2OC)CC1 | 79.4 | > 100 | 1000 | 4.2
28 | COc1cc(N)c(Cl)cc1C(=O)NC1CCN(CCCCCCCCS(=O)(=O)O)CC1 | 1000 | > 100 | 15800 | 4.3
29 | CC(C)n1c(=O)c(C(=O)N[C@H]2C[C@H]3CC[C@@H](C2)N3CCCCCCCCN2CCCCC2)cc2ccccc21 | 1.26 | 99 | 3.16 | 9900
30 | CC(C)n1c(=O)n(C(=O)NC2CCNCC2)c2ccccc21 | 316 | > 100 | 1580 | 0.019
31 | COc1cc(N)c(Cl)cc1C(=O)NC1CCN(CCCCCN2CCCCC2)CC1 | 5.01 | > 100 | 10 | 990
32 | CC(C)n1c(=O)c(C(=O)N[C@H]2C[C@H]3CC[C@@H](C2)N3CCCCCCCCN(C)CCc2c[nH]c3ccccc23)cc2ccccc21 | 1 | > 100 | 3.16 | 2300
33 | COc1cc(N)c(Cl)cc1C(=O)NCC1CCNCC1 | 398 | 81 | 316 | 0.12
34 | CC(C)n1c(=O)c(C(=O)N[C@H]2C[C@H]3CC[C@@H](C2)N3CCCCCN(C)CCc2c[nH]c3ccccc23)cc2ccccc21 | 0.631 | > 100 | 3.16 | 6000
35 | COc1cc(N)c(Cl)cc1C(=O)NC1CCN(CCCCCCCCN2C(=O)c3ccccc3C2=O)CC1 | 3.16 | 89 | 39.8 | 40
36 | COc1cc(N)c(Cl)cc1C(=O)NC1CCN(CCCCCN(C)CCc2c[nH]c3ccccc23)CC1 | 1.26 | > 100 | 1.58 | 12000
37 | COc1cc(N)c(Cl)cc1C(=O)N[C@H]1C[C@H]2CC[C@@H](C1)N2 | 100 | 57 | 158 | 0.2
38 | CCCCCCCCN1[C@@H]2CC[C@H]1C[C@@H](NC(=O)c1cc3ccccc3n(C(C)C)c1=O)C2 | 39.8 | > 100 | 63.1 | 150
39 | CCCCCN1CCC(NC(=O)c2cc(Cl)c(N)cc2OC)CC1 | 25.1 | > 100 | 100 | 33
40 | COc1cc(N)c(Cl)cc1C(=O)NC1CCNCC1 | 398 | > 100 | 1580 | 0.095
